{"source": "patent US10208030B2", "about": "“GPR119 agonist compounds” (Mankind Pharma Ltd., priority 2016, dated 2019)"}
{"biological_target": "T1, hGPR119 (Homo sapiens, UniProt Q8TDV5)", "T1 construct": "expressed in transfected cells; host or cells: CHO cells (CHO-hGPR119)", "T1 sequence (Q8TDV5 1-335)": "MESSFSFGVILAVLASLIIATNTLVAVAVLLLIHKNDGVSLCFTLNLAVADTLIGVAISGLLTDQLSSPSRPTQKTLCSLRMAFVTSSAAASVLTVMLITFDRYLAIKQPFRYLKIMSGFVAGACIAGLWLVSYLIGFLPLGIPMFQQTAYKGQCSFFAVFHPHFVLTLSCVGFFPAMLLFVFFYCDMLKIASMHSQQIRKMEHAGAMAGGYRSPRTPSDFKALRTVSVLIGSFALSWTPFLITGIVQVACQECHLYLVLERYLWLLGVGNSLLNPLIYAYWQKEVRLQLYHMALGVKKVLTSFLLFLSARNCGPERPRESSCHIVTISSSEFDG", "assay": "In vitro cyclic AMP assay (Cisbio HTRF) in CHO-hGPR119 cells", "format": "cell-based", "conditions": "1 h, cAMP, 1 μM, 60 min, read-out: Induction (% induction at 1 μM)", "procedure": "(§1) cAMP measurements were done using Cisbio dynamic 2 HTRF kit according to the manufacturer's protocol. Briefly, CHO-hGPR119 cells were plated at a cell density of 5000 cells/well/5 μl into a white small volume 384 well plate. The final concentrations of IBMX and DMSO used were 1 mM and 0.5% respectively. Cells were treated with various concentrations of the test compound for 60 min at room temperature. Cells were lysed by buffer containing Anti-cAMP antibody and d2-cAMP reagents and incubated for 1 hour at room temperature. HTRF was measured at 337 nm excitation and emission wavelengths of 665 nm and 620 nm on a microplate reader (Flurostar, BMG Labtech). Graphpad prism software was utilized for EC50 determinations.", "units": {"activation at 1 µM": "%"}}
{"smiles": "CC(C)c1noc(N2CCC(C(C)Oc3nn4cc(-c5ccncc5F)nc4s3)CC2)n1", "note": "(stereo in doubt) [Compound 1064, (S)-5-(4-(1-((6-(3-fluoropyridin-4-yl)imidazo[2,1-b][1,3,4]thiadiazol-2-yl)oxy)ethyl)piperidin-1-yl)-3-isopropyl-1,2,4-oxadiazole]", "activation at 1 µM": 75}
{"smiles": "CCc1cnc(N2CCC(C(C)Oc3nn4cc(-c5ccncc5)nc4s3)CC2)nc1", "note": "(stereo in doubt) [Compound 1080, 2-((S)-1-(1-(5-ethylpyrimidin-2-yl)piperidin-4-yl)ethoxy)-6-(pyridin-4-yl)imidazo[2,1-b][1,3,4]thiadiazole]", "activation at 1 µM": 74}
{"smiles": "CC(C)c1noc(N2CCC(C(C)Oc3nn4cc(-c5ccc(C(F)(F)F)nc5)nc4s3)CC2)n1", "note": "(stereo in doubt) [Compound 1084, 2-((S)-1-(1-(3-isopropyl-1,2,4-oxadiazol-5-yl)piperidin-4-yl)ethoxy)-6-(6-(trifluoromethyl)pyridin-3-yl)imidazo[2,1-b][1,3,4]thiadiazole]", "activation at 1 µM": 72}
{"smiles": "CCc1cnc(N2CCC(C(C)Oc3nn4cc(-c5ccc(S(C)(=O)=O)nc5F)nc4s3)CC2)nc1", "note": "(stereo in doubt) [Compound 1102, 2-((S)-1-(1-(5-ethylpyrimidin-2-yl)piperidin-4-yl)ethoxy)-6-(2-fluoro-6-(methylsulfonyl)pyridin-3-yl)imidazo[2,1-b][1,3,4]thiadiazole]", "activation at 1 µM": 84}
{"smiles": "CC(C)c1noc(C2CCN(c3nsnc3Oc3ccc(-n4cnnn4)cc3)CC2)n1", "note": "[Compound 1003, 5-(1-(4-(4-(1H-tetrazol-1-yl)phenoxy)-1,2,5-thiadiazol-3-yl)piperidin-4-yl)-3-isopropyl-1,2,4-oxadiazole]", "activation at 1 µM": 3}
{"smiles": "CCc1cnc(N2CCC(c3nsnc3-c3ccc(S(C)(=O)=O)cc3)CC2)nc1", "note": "[Compound 1004, 3-(1-(5-ethylpyrimidin-2-yl)piperidin-4-yl)-4-(4-(methylsulfonyl)phenyl)-1,2,5-thiadiazole]", "activation at 1 µM": 6}
{"smiles": "CCc1cnc(N2CC=C(c3nsnc3Oc3ccc(-n4cnnn4)cc3)CC2)nc1", "note": "[Compound 1005, 3-(4-(1H-tetrazol-1-yl)phenoxy)-4-(1-(5-ethylpyrimidin-2-yl)-1,2,3,6-tetrahydropyridin-4-yl)-1,2,5-thiadiazole]", "activation at 1 µM": 2}
{"smiles": "CC(C)c1noc(C2CCN(c3nsnc3COc3ccc(S(C)(=O)=O)cc3F)CC2)n1", "note": "[Compound 1006, 5-(1-(4-((2-fluoro-4-(methylsulfonyl)phenoxy)methyl)-1,2,5-thiadiazol-3-yl)piperidin-4-yl)-3-isopropyl-1,2,4-oxadiazole]", "activation at 1 µM": 9}
{"smiles": "CC(C)c1noc(C2CCN(c3nsnc3-c3ccc(S(C)(=O)=O)cc3)CC2)n1", "note": "[Compound 1007, 3-isopropyl-5-(1-(4-(4-(methylsulfonyl)phenyl)-1,2,5-thiadiazol-3-yl)piperidin-4-yl)-1,2,4-oxadiazole]", "activation at 1 µM": -8}
{"smiles": "CC(C)OC(=O)N1CCN(c2nsnc2Oc2ccc(-n3cnnn3)cc2)CC1", "note": "[Compound 1010, isopropyl 4-(4-(4-(1H-tetrazol-1-yl)phenoxy)-1,2,5-thiadiazol-3-yl)piperazine-1-carboxylate]", "activation at 1 µM": 2}
{"smiles": "CC(C)c1noc(N2CCC(COc3nsnc3OCC3CCN(c4nc(C(C)C)no4)CC3)CC2)n1", "note": "[Compound 1011, 3,4-bis((1-(3-isopropyl-1,2,4-oxadiazol-5-yl)piperidin-4-yl)methoxy)-1,2,5-thiadiazole]", "activation at 1 µM": 2}
{"smiles": "CC(C)c1noc(C2CCN(c3nsnc3C(=O)Nc3ccc(S(C)(=O)=O)cc3F)CC2)n1", "note": "[Compound 1012, N-(2-fluoro-4-(methylsulfonyl)phenyl)-4-(4-(3-isopropyl-1,2,4-oxadiazol-5-yl)piperidin-1-yl)-1,2,5-thiadiazole-3-carboxamide]", "activation at 1 µM": 22}
{"smiles": "CCc1cnc(N2CCC(c3nsnc3C(=O)Nc3ccc(S(C)(=O)=O)cc3F)CC2)nc1", "note": "[Compound 1015, 4-(1-(5-ethylpyrimidin-2-yl)piperidin-4-yl)-N-(2-fluoro-4-(methylsulfonyl)phenyl)-1,2,5-thiadiazole-3-carboxamide]", "activation at 1 µM": 3}
{"smiles": "CC(C)c1noc(C2CCN(c3nn4cc(-c5ccc(S(C)(=O)=O)cc5)nc4s3)CC2)n1", "note": "[Compound 1016, 3-isopropyl-5-(1-(6-(4-(methylsulfonyl)phenyl)imidazo[2,1-b][1,3,4]thiadiazol-2-yl)piperidin-4-yl)-1,2,4-oxadiazole]", "activation at 1 µM": 54}
{"smiles": "CC(C)c1noc(N2CCC(COc3nn4cc(-c5ccc(S(C)(=O)=O)cc5)nc4s3)CC2)n1", "note": "[Compound 1017, 3-isopropyl-5-(4-(((6-(4-(methylsulfonyl)phenyl)imidazo[2,1-b][1,3,4]thiadiazol-2-yl)oxy)methyl)piperidin-1-yl)-1,2,4-oxadiazole]", "activation at 1 µM": 39}
{"smiles": "CC(C)c1noc(N2CCC(Oc3nn4cc(-c5ccc(S(C)(=O)=O)cc5)nc4s3)CC2)n1", "note": "[Compound 1018, 3-isopropyl-5-(4-((6-(4-(methylsulfonyl)phenyl)imidazo[2,1-b][1,3,4]thiadiazol-2-yl)oxy)piperidin-1-yl)-1,2,4-oxadiazole]", "activation at 1 µM": 20}
{"smiles": "CS(=O)(=O)c1ccc(-c2cn3nc(C4CCN(Cc5ccccc5)CC4)sc3n2)cc1", "note": "[Compound 1019, 2-(1-benzylpiperidin-4-yl)-6-(4-(methylsulfonyl)phenyl)imidazo[2,1-b][1,3,4]thiadiazole]", "activation at 1 µM": 11}
{"smiles": "CC(C)OC(=O)N1CCN(c2nn3cc(-c4ccc(S(C)(=O)=O)cc4)nc3s2)CC1", "note": "[Compound 1020, isopropyl 4-(6-(4-(methylsulfonyl)phenyl)imidazo[2,1-b][1,3,4]thiadiazol-2-yl)piperazine-1-carboxylate]", "activation at 1 µM": 1}
{"smiles": "CC(C)OC(=O)N1CCC(N(C)c2nn3cc(-c4ccc(S(C)(=O)=O)cc4)nc3s2)CC1", "note": "[Compound 1022, isopropyl 4-(methyl(6-(4-(methylsulfonyl)phenyl)imidazo[2,1-b][1,3,4]thiadiazol-2-yl)amino)piperidine-1-carboxylate]", "activation at 1 µM": 16}
{"smiles": "CCc1cnc(N2CCC(Nc3nn4cc(-c5ccc(S(C)(=O)=O)cc5)nc4s3)CC2)nc1", "note": "[Compound 1023, N-(1-(5-ethylpyrimidin-2-yl)piperidin-4-yl)-6-(4-(methylsulfonyl)phenyl)imidazo[2,1-b][1,3,4]thiadiazol-2-amine]", "activation at 1 µM": 0}
{"smiles": "CC(C)OC(=O)N1CCC(c2nn3cc(-c4ccc(S(C)(=O)=O)cc4)nc3s2)CC1", "note": "[Compound 1024, isopropyl 4-(6-(4-(methylsulfonyl)phenyl)imidazo[2,1-b][1,3,4]thiadiazol-2-yl)piperidine-1-carboxylate]", "activation at 1 µM": 38}
{"smiles": "CN(c1nn2cc(-c3ccc(S(C)(=O)=O)cc3)nc2s1)C1CCN(C(N)=O)CC1", "note": "[Compound 1025, 4-(methyl(6-(4-(methylsulfonyl)phenyl)imidazo[2,1-b][1,3,4]thiadiazol-2-yl)amino)piperidine-1-carboxamide]", "activation at 1 µM": 11}
{"smiles": "CC(C)c1noc(N2CCC(c3nn4cc(-c5ccc(S(C)(=O)=O)cc5)nc4s3)CC2)n1", "note": "[Compound 1027, 3-isopropyl-5-(4-(6-(4-(methylsulfonyl)phenyl)imidazo[2,1-b][1,3,4]thiadiazol-2-yl)piperidin-1-yl)-1,2,4-oxadiazole]", "activation at 1 µM": 41}
{"smiles": "CC(C)c1noc(N2CCC(N(C)c3nn4cc(-c5ccc(S(C)(=O)=O)cc5)nc4s3)CC2)n1", "note": "[Compound 1029, N-(1-(3-isopropyl-1,2,4-oxadiazol-5-yl)piperidin-4-yl)-N-methyl-6-(4-(methylsulfonyl)phenyl)imidazo[2,1-b][1,3,4]thiadiazol-2-amine]", "activation at 1 µM": 9}
{"smiles": "CC(C)OC(=O)N1CCC(c2cn3nc(-c4ccc(S(C)(=O)=O)cc4)sc3n2)CC1", "note": "[Compound 1030, isopropyl 4-(2-(4-(methylsulfonyl)phenyl)imidazo[2,1-b][1,3,4]thiadiazol-6-yl)piperidine-1-carboxylate]", "activation at 1 µM": 26}
{"smiles": "CS(=O)(=O)c1ccc(-c2cn3nc(C4CCN(S(C)(=O)=O)CC4)sc3n2)cc1", "note": "[Compound 1031, 6-(4-(methylsulfonyl)phenyl)-2-(1-(methylsulfonyl)piperidin-4-yl)imidazo[2,1-b][1,3,4]thiadiazole]", "activation at 1 µM": 1}
{"smiles": "CC(C)c1noc(N2CCC(c3cn4nc(-c5ccc(S(C)(=O)=O)cc5)sc4n3)CC2)n1", "note": "[Compound 1032, 3-isopropyl-5-(4-(2-(4-(methylsulfonyl)phenyl)imidazo[2,1-b][1,3,4]thiadiazol-6-yl)piperidin-1-yl)-1,2,4-oxadiazole]", "activation at 1 µM": 41}
{"smiles": "CN(C)C(=O)N1CCC(c2nn3cc(-c4ccc(S(C)(=O)=O)cc4)nc3s2)CC1", "note": "[Compound 1033, N,N-dimethyl-4-(6-(4-(methylsulfonyl)phenyl)imidazo[2,1-b][1,3,4]thiadiazol-2-yl)piperidine-1-carboxamide]", "activation at 1 µM": 2}
{"smiles": "CC(C)OC(=O)N1CCC(c2cn3nc(-c4ccc(C(=O)N(C)C)cc4)sc3n2)CC1", "note": "[Compound 1034, isopropyl 4-(2-(4-(dimethylcarbamoyl)phenyl)imidazo[2,1-b][1,3,4]thiadiazol-6-yl)piperidine-1-carboxylate]", "activation at 1 µM": 53}
{"biological_target": "T1, hGPR119", "assay": "In vitro cyclic AMP assay (Cisbio HTRF) in CHO-hGPR119 cells", "format": "cell-based", "conditions": "cAMP, class symbols, legend not given", "procedure": "as §1"}
{"smiles": "CC(C)c1noc(N2CCC(C(C)Oc3nn4cc(-c5ccncc5F)nc4s3)CC2)n1", "note": "(stereo in doubt) [Compound 1064, (S)-5-(4-(1-((6-(3-fluoropyridin-4-yl)imidazo[2,1-b][1,3,4]thiadiazol-2-yl)oxy)ethyl)piperidin-1-yl)-3-isopropyl-1,2,4-oxadiazole]", "EC50": "A++"}
{"smiles": "CCc1cnc(N2CCC(C(C)Oc3nn4cc(-c5ccc(S(C)(=O)=O)nc5F)nc4s3)CC2)nc1", "note": "(stereo in doubt) [Compound 1102, 2-((S)-1-(1-(5-ethylpyrimidin-2-yl)piperidin-4-yl)ethoxy)-6-(2-fluoro-6-(methylsulfonyl)pyridin-3-yl)imidazo[2,1-b][1,3,4]thiadiazole]", "EC50": "A+"}
